From PubChem BioAssay (NCI)
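48-hour exposure; five concentrations; linearly interpolated endpoints. TGI is the concentration that stops growth completely.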

Legend:
Experiment in all cases: growth of human tumour cells (NCI), 48 h
[1] = test system: OVCAR-3 ovarian
[2] = test system: HCT-15 colon
[3] = test system: HOP-92 NSCLC
[4] = test system: RPMI-8226 leukemia
[5] = test system: UACC-62 melanoma
[6] = test system: MCF7 breast
[7] = test system: KM12 colon
[8] = test system: U251 CNS
[9] = test system: CCRF-CEM leukemia
[10] = test system: M14 melanoma
[11] = test system: OVCAR-8 ovarian
[12] = test system: COLO 205 colon
[13] = test system: NCI-H522 lung
[14] = test system: MOLT-4 leukemia
[15] = test system: SK-MEL-2 melanoma
[16] = test system: CAKI-1 renal
[17] = test system: A498 renal
[18] = test system: OVCAR-4 ovarian
[19] = test system: HT29 colon
[20] = test system: NCI-H460 lung

| Compound | TGI [1] [µM] | TGI [2] [µM] | TGI [3] [µM] | TGI [4] [µM] | TGI [5] [µM] | TGI [6] [µM] | TGI [7] [µM] | TGI [8] [µM] | TGI [9] [µM] | TGI [10] [µM] | TGI [11] [µM] | TGI [12] [µM] | TGI [13] [µM] | TGI [14] [µM] | TGI [15] [µM] | TGI [16] [µM] | TGI [17] [µM] | TGI [18] [µM] | TGI [19] [µM] | TGI [20] [µM] |
| --- | --- | --- | --- | --- | --- | --- | --- | --- | --- | --- | --- | --- | --- | --- | --- | --- | --- | --- | --- | --- |
| CC(C)(C)c1cc(C2NC(=O)NC2=O)cc(C(C)(C)C)c1O (stereo not drawn) | > 100 | > 100 | > 100 | > 100 | > 100 | 83.3 | 48.4 | > 100 | > 100 | > 100 | > 100 | > 100 | > 100 | > 100 | > 100 | > 100 | > 100 | > 100 | > 100 | – |
| CC(=O)OC1C(O)C(C)OC(OC(=O)C2CCC3C(C2)OC2(CC(OC(=O)/C=C/c4ccccc4)C(C)CO2)C32CO2)C1OC1OC(C)C(O)C(O)C1O (stereo not drawn) | 0.0917 | 39.2 | 0.0396 | 1.15 | 0.114 | 0.0917 | 0.144 | 0.12 | 1.26 | – | 0.823 | 0.0569 | 0.0487 | 5.05 | 0.0389 | 9.74 | 0.315 | 0.0706 | 0.576 | 0.236 |
| COc1cc(-c2coc3c(OC)c(OC4OC(COC5OC(C)C(O)C(O)C5O)C(O)C(O)C4O)c(OC)c(O)c3c2=O)cc(C)c1O (stereo not drawn) | 47.2 | 40.9 | 65 | – | 34.7 | 47.4 | 29.3 | 32.9 | > 100 | 33.1 | > 100 | 34.9 | 34.7 | 19.4 | 59.9 | 38.9 | – | 69.5 | 43.5 | 82.6 |
| O=c1cc2cc(O)[nH]c(=O)c2c(O)[nH]1 | > 100 | > 100 | > 100 | > 100 | > 100 | – | > 100 | > 100 | > 100 | > 100 | – | > 100 | > 100 | > 100 | – | > 100 | > 100 | > 100 | > 100 | > 100 |
